Like-named read-outs stand apart in the source and are kept apart here.
Key:
[1] = target: T1, EGFR wild type (Homo sapiens, UniProt P00533); experiment: Inhibition of EGFR wild type biochemical enzymatic activity (HTRF); details: EGFR WT, 1 mM ATP, 1 h, room temperature, read-out: IC50 (nM) @WT
T1 construct: purchased Carna Bio
Outline: (§1)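 For IC50 determination by four-parameter logistic fit, EDTA-quenched 1 h room-temperature reactions (1 mM ATP, 1 μM TK Substrate-biotin) were read by HTRF. The 665/615 nm emission ratio after 320 nm excitation served as the activity signal.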

[2] = target: T2, EGFR L858R (Homo sapiens, UniProt P00533, L858R); experiment: Inhibition of EGFR L858R biochemical enzymatic activity (HTRF); details: 1 mM ATP, 1 h, room temperature, read-out: IC50 (nM) @L858R
T2 construct: purchased Carna Bio
T2 sequence (P00533 25-1210 L858R): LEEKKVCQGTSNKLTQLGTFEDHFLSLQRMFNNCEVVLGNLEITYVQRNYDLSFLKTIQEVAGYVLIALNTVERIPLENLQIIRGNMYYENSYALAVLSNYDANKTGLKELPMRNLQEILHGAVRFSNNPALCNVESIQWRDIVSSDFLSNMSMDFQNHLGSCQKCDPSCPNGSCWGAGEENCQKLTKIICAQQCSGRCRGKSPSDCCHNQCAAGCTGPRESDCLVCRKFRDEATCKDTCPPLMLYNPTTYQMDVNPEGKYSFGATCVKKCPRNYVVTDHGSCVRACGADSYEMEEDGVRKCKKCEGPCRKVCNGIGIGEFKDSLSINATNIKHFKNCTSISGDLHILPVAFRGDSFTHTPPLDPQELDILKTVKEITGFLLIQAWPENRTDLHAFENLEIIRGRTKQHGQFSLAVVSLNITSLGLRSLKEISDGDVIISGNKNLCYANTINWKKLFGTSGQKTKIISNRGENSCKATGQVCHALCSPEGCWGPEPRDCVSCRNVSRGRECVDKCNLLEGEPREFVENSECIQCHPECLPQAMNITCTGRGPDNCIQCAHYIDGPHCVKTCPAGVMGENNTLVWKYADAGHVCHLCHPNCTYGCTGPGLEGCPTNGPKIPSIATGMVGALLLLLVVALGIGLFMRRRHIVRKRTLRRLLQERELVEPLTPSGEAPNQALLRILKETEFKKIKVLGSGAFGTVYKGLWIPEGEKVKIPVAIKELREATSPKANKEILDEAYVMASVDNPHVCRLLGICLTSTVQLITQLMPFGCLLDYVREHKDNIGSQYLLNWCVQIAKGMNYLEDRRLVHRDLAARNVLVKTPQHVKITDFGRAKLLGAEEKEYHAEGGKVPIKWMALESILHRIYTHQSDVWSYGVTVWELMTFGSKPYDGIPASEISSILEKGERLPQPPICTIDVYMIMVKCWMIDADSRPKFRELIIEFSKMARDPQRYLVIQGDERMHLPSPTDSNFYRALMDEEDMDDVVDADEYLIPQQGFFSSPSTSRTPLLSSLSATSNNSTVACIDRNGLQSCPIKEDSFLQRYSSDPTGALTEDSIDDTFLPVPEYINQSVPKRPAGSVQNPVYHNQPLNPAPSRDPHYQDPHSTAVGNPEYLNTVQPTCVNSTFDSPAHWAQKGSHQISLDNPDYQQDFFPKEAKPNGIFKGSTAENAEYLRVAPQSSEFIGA
Outline: as §1

[3] = target: T3, EGFR L858R/T790M (Homo sapiens, UniProt P00533, L858R/T790M); experiment: Inhibition of EGFR L858R/T790M biochemical enzymatic activity (HTRF); details: EGFR L858R-T790M, 1 mM ATP, 1 h, room temperature, read-out: IC50 (nM) @L858R-T790M
T3 construct: purchased Carna Bio
Outline: as §1

[4] = target: T4, EGFR Exon19Del (Homo sapiens, UniProt P00533, DEL746-750); experiment: Inhibition of EGFR Exon19Del biochemical enzymatic activity (HTRF); details: EGFR Del19, 1 mM ATP, 1 h, room temperature, read-out: IC50 @Del19
T4 construct: purchased Carna Bio
Outline: as §1

[5] = target: T5, EGFR Exon19Del/T790M (Homo sapiens, UniProt P00533, DEL746-750/T790M); experiment: Inhibition of EGFR Exon19Del/T790M biochemical enzymatic activity (HTRF); details: EGFR Del19-T790M, 1 mM ATP, 1 h, room temperature, read-out: IC50 (nM) @Del19-T790M
T5 construct: purchased Carna Bio
T5 sequence (P00533 with tags, fused parts or gaps DEL746-750/T790M limits assumed): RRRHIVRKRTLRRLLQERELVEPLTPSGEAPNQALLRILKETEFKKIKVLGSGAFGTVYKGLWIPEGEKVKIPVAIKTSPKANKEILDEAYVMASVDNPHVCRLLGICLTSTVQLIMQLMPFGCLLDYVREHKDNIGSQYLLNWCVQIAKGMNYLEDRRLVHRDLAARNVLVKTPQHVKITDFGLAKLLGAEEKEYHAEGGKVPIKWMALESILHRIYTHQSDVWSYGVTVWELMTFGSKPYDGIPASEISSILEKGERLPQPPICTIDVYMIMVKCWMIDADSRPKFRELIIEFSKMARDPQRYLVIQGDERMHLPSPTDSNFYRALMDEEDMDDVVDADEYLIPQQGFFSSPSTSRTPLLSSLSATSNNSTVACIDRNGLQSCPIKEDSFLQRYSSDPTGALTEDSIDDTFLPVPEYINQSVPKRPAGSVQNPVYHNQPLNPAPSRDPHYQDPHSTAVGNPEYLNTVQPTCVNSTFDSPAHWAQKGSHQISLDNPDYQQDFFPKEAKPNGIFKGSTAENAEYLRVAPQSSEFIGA
Outline: as §1

[6] = target: T6, EGFR[T790M/C797S/L858R] (Homo sapiens, UniProt P00533, C797S/L858R/T790M); experiment: Inhibition of EGFR[T790M/C797S/L858R] biochemical enzymatic activity (HTRF); details: EGFR T790M-C797S-L858R, 1 mM ATP, 1 h, room temperature, read-out: IC50 (nM) @T790M- C797S - L858R
T6 construct: purchased Carna Bio
T6 sequence (P00533 25-1210 T790M/C797S/L858R): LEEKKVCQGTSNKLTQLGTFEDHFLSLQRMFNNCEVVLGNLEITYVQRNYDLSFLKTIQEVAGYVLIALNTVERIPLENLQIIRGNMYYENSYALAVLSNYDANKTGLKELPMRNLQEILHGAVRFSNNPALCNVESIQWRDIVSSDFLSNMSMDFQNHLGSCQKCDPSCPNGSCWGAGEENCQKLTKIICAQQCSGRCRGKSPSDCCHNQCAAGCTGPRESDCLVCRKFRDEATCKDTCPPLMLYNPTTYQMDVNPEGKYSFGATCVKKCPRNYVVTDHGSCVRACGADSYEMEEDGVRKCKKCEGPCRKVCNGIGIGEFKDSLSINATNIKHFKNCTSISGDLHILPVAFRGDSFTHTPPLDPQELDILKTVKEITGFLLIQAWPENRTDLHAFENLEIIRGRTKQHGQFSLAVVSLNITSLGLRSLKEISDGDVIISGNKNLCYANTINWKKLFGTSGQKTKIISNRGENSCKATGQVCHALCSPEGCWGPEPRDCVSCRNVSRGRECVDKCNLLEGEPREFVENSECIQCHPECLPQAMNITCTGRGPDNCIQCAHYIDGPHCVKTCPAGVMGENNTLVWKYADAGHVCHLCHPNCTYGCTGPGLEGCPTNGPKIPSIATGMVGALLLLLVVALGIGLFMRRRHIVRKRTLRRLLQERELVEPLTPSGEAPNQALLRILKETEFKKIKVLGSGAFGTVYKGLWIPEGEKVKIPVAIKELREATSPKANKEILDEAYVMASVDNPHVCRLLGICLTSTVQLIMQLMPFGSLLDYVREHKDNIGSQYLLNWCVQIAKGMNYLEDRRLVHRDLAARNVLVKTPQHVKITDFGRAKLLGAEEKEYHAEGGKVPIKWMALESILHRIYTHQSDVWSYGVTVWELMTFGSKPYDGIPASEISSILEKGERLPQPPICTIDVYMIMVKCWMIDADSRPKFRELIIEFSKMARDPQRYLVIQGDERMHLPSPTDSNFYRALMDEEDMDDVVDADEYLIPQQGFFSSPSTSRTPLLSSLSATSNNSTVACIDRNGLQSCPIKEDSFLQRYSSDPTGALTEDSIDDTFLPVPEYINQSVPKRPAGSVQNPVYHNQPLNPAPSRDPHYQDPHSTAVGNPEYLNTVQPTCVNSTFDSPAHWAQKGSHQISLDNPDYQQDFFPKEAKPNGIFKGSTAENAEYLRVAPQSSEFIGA
Outline: as §1

[7] = target: T7, EGFR[T790M/C797S/d746-750] (Homo sapiens, UniProt P00533, C797S/DEL746-750/T790M); experiment: Inhibition of EGFR[T790M/C797S/d746-750] biochemical enzymatic activity (HTRF); details: EGFR T790M-C797S-Del19, 1 mM ATP, 1 h, room temperature, read-out: IC50 (nM) @T790M - C797S - Del19
T7 construct: purchased Carna Bio
Outline: as §1

[8] = target: T8, EGFR (d746-750 C797S) (Homo sapiens, UniProt P00533, C797S/DEL746-750); experiment: Inhibition of EGFR (d746-750 C797S) biochemical enzymatic activity (HTRF); details: EGFR Del19-C797S, 1 mM ATP, 1 h, room temperature, read-out: IC50 (nM) @Del19-C797S
T8 construct: purchased signalchem
T8 sequence (P00533 with tags, fused parts or gaps DEL746-750/C797S limits assumed): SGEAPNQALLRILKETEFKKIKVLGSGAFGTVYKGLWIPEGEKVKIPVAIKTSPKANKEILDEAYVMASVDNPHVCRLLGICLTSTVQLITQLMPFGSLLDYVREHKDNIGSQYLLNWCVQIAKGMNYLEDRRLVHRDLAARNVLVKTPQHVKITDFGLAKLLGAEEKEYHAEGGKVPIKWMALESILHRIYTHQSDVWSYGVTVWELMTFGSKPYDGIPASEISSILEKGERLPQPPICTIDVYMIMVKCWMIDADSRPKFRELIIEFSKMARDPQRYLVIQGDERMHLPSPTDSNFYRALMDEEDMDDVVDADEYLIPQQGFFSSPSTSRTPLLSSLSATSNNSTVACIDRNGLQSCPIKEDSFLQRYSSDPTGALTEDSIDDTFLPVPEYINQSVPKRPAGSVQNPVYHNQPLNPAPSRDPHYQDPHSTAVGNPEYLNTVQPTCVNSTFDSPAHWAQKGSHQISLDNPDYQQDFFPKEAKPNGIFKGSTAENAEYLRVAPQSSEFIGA
Outline: as §1

[9] = target: T9, EGFR (C797S L858R) (Homo sapiens, UniProt P00533, C797S/L858R); experiment: Inhibition of EGFR (C797S L858R) biochemical enzymatic activity (HTRF); details: EGFR L858-C797S, 1 mM ATP, 1 h, room temperature, read-out: IC50 (nM) @L858-C797S
T9 construct: purchased signalchem
T9 sequence (P00533 25-1210 C797S/L858R): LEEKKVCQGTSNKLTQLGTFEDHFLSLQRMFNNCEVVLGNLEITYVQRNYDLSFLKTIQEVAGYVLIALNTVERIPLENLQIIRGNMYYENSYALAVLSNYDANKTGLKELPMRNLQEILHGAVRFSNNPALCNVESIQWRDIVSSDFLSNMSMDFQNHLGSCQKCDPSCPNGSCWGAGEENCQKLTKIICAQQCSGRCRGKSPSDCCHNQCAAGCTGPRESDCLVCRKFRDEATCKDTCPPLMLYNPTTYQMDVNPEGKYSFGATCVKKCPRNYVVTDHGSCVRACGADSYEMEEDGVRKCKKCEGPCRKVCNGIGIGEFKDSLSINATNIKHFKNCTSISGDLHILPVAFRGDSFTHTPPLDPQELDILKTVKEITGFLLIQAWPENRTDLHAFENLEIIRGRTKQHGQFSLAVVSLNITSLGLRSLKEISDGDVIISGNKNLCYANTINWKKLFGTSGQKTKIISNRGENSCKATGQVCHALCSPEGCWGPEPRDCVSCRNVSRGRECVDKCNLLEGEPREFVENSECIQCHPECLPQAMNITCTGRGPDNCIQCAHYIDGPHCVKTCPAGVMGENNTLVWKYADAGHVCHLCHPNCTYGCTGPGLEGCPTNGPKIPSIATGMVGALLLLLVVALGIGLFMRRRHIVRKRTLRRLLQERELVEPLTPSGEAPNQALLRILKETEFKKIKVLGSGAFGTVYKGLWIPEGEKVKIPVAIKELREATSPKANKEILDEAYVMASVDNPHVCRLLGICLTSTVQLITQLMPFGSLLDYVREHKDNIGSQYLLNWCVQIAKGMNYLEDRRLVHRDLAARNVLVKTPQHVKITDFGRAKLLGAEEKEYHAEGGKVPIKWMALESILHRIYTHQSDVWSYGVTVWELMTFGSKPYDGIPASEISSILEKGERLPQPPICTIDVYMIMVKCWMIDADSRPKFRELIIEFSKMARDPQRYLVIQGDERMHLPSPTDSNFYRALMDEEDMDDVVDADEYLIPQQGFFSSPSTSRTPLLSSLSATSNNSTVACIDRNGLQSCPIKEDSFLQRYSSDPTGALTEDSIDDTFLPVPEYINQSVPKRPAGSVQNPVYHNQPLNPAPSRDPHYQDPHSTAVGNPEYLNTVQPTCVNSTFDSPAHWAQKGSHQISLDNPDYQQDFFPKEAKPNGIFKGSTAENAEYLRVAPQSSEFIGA
Outline: as §1

[10] = system: Ba/F3 cells expressing EGFR mutations; experiment: Cell proliferation assay, Ba/F3 cells expressing EGFR mutations (CellTiter-Glo, 72 hours); format: cell-based; details: CellTiter-Glo
Outline: (§2)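 Cells are exposed to graded compound concentrations after overnight plating, using 500 PC-9 or 5000 Ba/F3 per well. Baseline-subtracted viability is compared with vehicle to give percent proliferation, then GI50.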

[11] = system: PC-9; experiment: Cell proliferation assay, PC-9 cells (CellTiter-Glo, 72 hours); format: cell-based; details: PC9 cells, CellTiter-Glo, read-out: PC9 GI50
Outline: as §2

[12] = system: A-431; experiment: Cell proliferation GI50, A-431 cells (Table 6); format: cell-based
[13] = BaF3 cells, EGFR DEL19-C797S, read-out: DEL19-C797S/BaF3 GI50
[14] = BaF3 cells, EGFR DEL19-T790-C797S, read-out: DEL19-T790-C797S/BaF3 GI50
[15] = BaF3 cells, EGFR L858R, read-out: L858R/BaF3 GI50
[16] = BaF3 cells, EGFR L858R-C797S, read-out: L858R-C797S/BaF3 GI50
[17] = BaF3 cells, EGFR L858R-T790-C797S, read-out: L858R-T790-C797S/BaF3 GI50
[18] = BaF3 cells, EGFR L858R-T790M, read-out: L858R-T790M/BaF3 GI50
[19] = EGFR DEL19-T790M, read-out: DEL19-T790M GI50
[20] = Homo sapiens, A-431, A-431 cells

Row | SMILES | IC50 [1] [nM] | IC50 [2] [nM] | IC50 [3] [nM] | IC50 [4] [nM] | IC50 [5] [nM] | IC50 [6] [nM] | IC50 [7] [nM] | IC50 [8] [nM] | IC50 [9] [nM] | GI50 [10, 13] [nM] | GI50 [10, 14] [nM] | GI50 [10, 15] [nM] | GI50 [10, 16] [nM] | GI50 [10, 17] [nM] | GI50 [10, 18] [nM] | GI50 [10, 19] [nM] | GI50 [11] [nM] | GI50 ([12]; A-431 cells) [nM] | GI50 [12, 20] [nM]
1 | CN1CCN(C2CN(c3ccc4nc5n(c4c3)C34CCC(CN(CCOc6c(cnn6C)-c6cc(cn(C)c6=O)C(=O)N5)C3)C4)C2)CC1 (single isomer, unassigned) [Example A70B] | 19 | 4.7 | 1.8 | 1.6 | 1.9 | 2.1 | 2.1 | 0.91 | 3.6 | 0.66 | 1 | 0.76 | 2.7 | 0.91 | 5.9 | 1.6 | 2.7 | 744 | –
2 | Cn1ncc2c1OCCN1CC3CCC(C3)(C1)n1c(nc3ccc(N4CCN(C5COC5)CC4)cc31)NC(=O)c1cc-2c(=O)n(C)c1 (single isomer, unassigned) [Example A71B] | 319 | 14 | 2.8 | 1.8 | 2.5 | 2.9 | 2.4 | 1.3 | 20 | 0.66 | 2 | 2.9 | 4.2 | 2.2 | 8 | 1.9 | 6.6 | 830 | –
3 | CN1CC2(CCN(c3ccc4nc5n(c4c3)C34CCC(CN(CCOc6c(cnn6C)-c6cc(cn(C)c6=O)C(=O)N5)C3)C4)C2)C1 (single isomer, unassigned) [Example A73B] | 13 | 4 | 1.9 | 1.3 | 2.2 | 1.9 | 2.1 | 1.4 | 2.9 | 0.54 | 1.9 | 1.8 | 3.5 | 1.9 | 8 | 1.5 | 7.3 | – | 1070
4 | CN1CCCC12CN(c1ccc3nc4n(c3c1)C13CCC(CN(CCOc5c(cnn5C)-c5cc(cn(C)c5=O)C(=O)N4)C1)C3)C2 (single isomer, unassigned) [Example A76A] | > 5000 | 2860 | > 5000 | 450 | > 5000 | > 5000 | 4860 | 503 | 4300 | 272 | 564 | 536 | 304 | 980 | 942 | 584 | 810 | 7930 | –
5 | CN1CCCC12CN(c1ccc3nc4n(c3c1)C13CCC(CN(CCOc5c(cnn5C)-c5cc(cn(C)c5=O)C(=O)N4)C1)C3)C2 (single isomer, unassigned) [Example A76B] | 206 | 39 | 7 | 4.2 | 4.9 | 6.9 | 4.4 | 3.5 | 27 | 0.78 | 12 | 13 | 7.6 | 34 | 39 | 12 | 23 | 1640 | –
6 | CN1CCC2(C1)CN(c1ccc3nc4n(c3c1)C13CCC(CN(CCOc5c(cnn5C)-c5cc(cn(C)c5=O)C(=O)N4)C1)C3)C2 (single isomer, unassigned) [Example A78A] | > 5000 | 2040 | > 5000 | 508 | > 5000 | > 5000 | 3750 | 494 | > 5000 | 102 | 269 | 329 | 157 | 402 | 380 | 250 | 249 | 3050 | –
7 | CN1CCC2CN(c3ccc4nc5n(c4c3)C34CCC(CN(CCOc6c(cnn6C)-c6cc(cn(C)c6=O)C(=O)N5)C3)C4)CC21 (single isomer, unassigned) [Example A79B] | 126 | 27 | 12 | 6.3 | 10 | 8.3 | 11 | 5 | 13 | 0.7 | 10 | 12 | 8.5 | 14 | 37 | 13 | 23 | – | 1280

The next compounds have a lower IC50 [1] than those just listed; values first:

Row | IC50 [1] [nM] | IC50 [2] [nM] | IC50 [3] [nM] | IC50 [4] [nM] | IC50 [5] [nM] | IC50 [6] [nM] | IC50 [7] [nM] | IC50 [8] [nM] | IC50 [9] [nM] | GI50 [10, 13] [nM] | GI50 [10, 14] [nM] | GI50 [10, 15] [nM] | GI50 [10, 16] [nM] | GI50 [10, 17] [nM] | GI50 [10, 18] [nM] | GI50 [10, 19] [nM] | GI50 [11] [nM] | GI50 ([12]; A-431 cells) [nM] | GI50 [12, 20] [nM] | SMILES
8 | 11 | 2.4 | 2.4 | 1.2 | 2.7 | 1.4 | 1.6 | 0.91 | 2.2 | 0.51 | 0.82 | 0.87 | 0.74 | 0.9 | 1 | 0.75 | 2.4 | 434 | – | CN1CCC2(C1)CN(c1ccc3nc4n(c3c1)C13CCC(CN(CCOc5c(cnn5C)-c5cc(cn(C)c5=O)C(=O)N4)C1)C3)C2 (single isomer, unassigned) [Example A78B]
9 | 7.3 | 3.5 | 3.8 | 2.9 | 3.8 | 3.4 | 3.6 | 2.1 | 3.7 | 0.72 | 0.91 | 0.89 | 1.4 | 1.3 | 2.4 | 0.85 | 2.1 | – | 310 | CN1CCC2(CC1)CN(c1ccc3nc4n(c3c1)C13CCC(CN(CCOc5c(cnn5C)-c5cc(cn(C)c5=O)C(=O)N4)C1)C3)C2 (single isomer, unassigned) [Example A77B]
10 | 5.2 | 2.4 | 1.8 | 1.8 | 2.4 | 1.3 | 2.2 | 0.92 | 2 | 0.51 | 0.58 | 0.88 | 1.9 | 0.51 | 1.6 | 0.51 | 2.1 | – | 731 | CN(C)CC1(F)CN(c2ccc3nc4n(c3c2)C23CCC(CN(CCOc5c(cnn5C)-c5cc(cn(C)c5=O)C(=O)N4)C2)C3)C1 (single isomer, unassigned) [Example A72B]

From patent US20260365670A1, “EGFR INHIBITORS AND USES THEREOF” (DIZAL (JIANGSU) PHARMACEUTICAL CO., LTD., priority 2022, published 2026)
